Read-outs that look alike come from different tables or passages of the source. Starred links: 1 amine or outer side, 2 acyl side, 3 side chain; linkers in the order of their positions; H or OH if unused. Positions of bridges follow the written chain, without caps; N, C: chain ends. Non-standard residues stand in square brackets, D forms with d. Residues, ends and D or L forms follow the SMILES beside them. ξ: configuration not given here. *: point of attachment. X5 = Cn1nc(C(=O)Nc2ccc(-c3ccc(C[C@H](N[*:1])C(=O)[*:2])cc3)cc2)c2ccccc21; Bip(4'-NH) = O=C([C@H](Cc1ccc(-c2ccc(N[*:3])cc2)cc1)N[*:1])[*:2]; Indazole3carbonyl(1-CH2COOH) = O=C(O)Cn1nc(C(=O)*)c2ccccc21; X72 = N=C(N)Nc1ccc(CCNC(=N)NCCC[C@@H](N[*:1])C(=O)[*:2])cc1; Bip(4'-COOH) = N[C@@H](Cc1ccc(-c2ccc(C(=O)O)cc2)cc1)C(=O)O; Bip(4'-NHAc) = CC(=O)Nc1ccc(-c2ccc(C[C@H](N)C(=O)O)cc2)cc1; X8 = N=C(NCCC[C@@H](N[*:1])C(=O)[*:2])NCCc1ccc(CN)cc1; Ala(morpholin-4-yl) = N[C@@H](CN1CCOCC1)C(=O)O; Benzoyl(3-OCH2COOH) = O=C(O)COc1cccc(C(=O)*)c1; Phe(3-CONH2) = NC(=O)c1cccc(C[C@H](N)C(=O)O)c1; Bip = N[C@@H](Cc1ccc(-c2ccccc2)cc1)C(=O)O; Phe(4-NH2) = Nc1ccc(C[C@H](N)C(=O)O)cc1; Ala(2-furyl) = N[C@@H](Cc1ccco1)C(=O)O; Phe(4-F) = N[C@@H](Cc1ccc(F)cc1)C(=O)O; Val(3-OH) = CC(C)(O)[C@H](N)C(=O)O; 2Pal = N[C@@H](Cc1ccccn1)C(=O)O; Cha = N[C@@H](CC1CCCCC1)C(=O)O; Chg = N[C@H](C(=O)O)C1CCCCC1; Tle = CC(C)(C)[C@H](N)C(=O)O; ξIle = CC[C@H](C)C(N)C(=O)O; Sar = CNCC(=O)O
Target: TNFα (Homo sapiens, UniProt P01375)
Sequence (P01375 77-233 limits assumed): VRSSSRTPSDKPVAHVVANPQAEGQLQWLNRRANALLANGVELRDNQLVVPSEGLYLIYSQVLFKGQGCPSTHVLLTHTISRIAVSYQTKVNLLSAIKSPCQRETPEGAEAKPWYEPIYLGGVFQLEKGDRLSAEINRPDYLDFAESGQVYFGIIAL
Test: TNF-Induced HEK-Blue Assay
Format: cell-based
[1] = HEK-Blue-CD40L cells, NF-kB-driven secreted alkaline phosphatase reporter, TNFα 0.5 ng/ml, 18 h, read-out: TNF induced HEK-Blue assay IC50 value

| Structure (SMILES) | IC50 [1] | IC50 |
| --- | --- | --- |
| CC(C)C[C@@H]1NC(=O)[C@H](CCCNC(=N)N)NC(=O)[C@H](C(C)C)NC(=O)[C@@H]2CCCN2C(=O)[C@H](C(C)C)NC(=O)[C@@H](CCCNC(=N)NCCc2ccc(CN)cc2)NC(=O)[C@H](CC(=O)O)NC(=O)[C@@H]2CCCN2C(=O)CN(C)C(=O)[C@H](Cc2ccc(-c3ccc(NC(=O)c4nn(CC(=O)O)c5ccccc45)cc3)cc2)NC(=O)[C@H](Cc2ccc(-c3ccccc3)cc2)NC(=O)[C@H](CN2CCOCC2)NC(=O)CSC[C@@H](C(=O)NCC(N)=O)NC1=O [Example 429] ({CH2CO}-[Ala(morpholin-4-yl)][Bip][Bip(4'-NH)](Indazole3carbonyl(1-CH2COOH))[Sar]PD[X8]VPVRLCG-NH2; thioether N-13) | – | 200 to 2000 nM |
| CC(=O)Nc1ccc(-c2ccc(C[C@@H]3NC(=O)[C@H](Cc4ccc(-c5ccccc5)cc4)NC(=O)[C@H](CN4CCOCC4)NC(=O)CSC[C@@H](C(=O)NCC(N)=O)NC(=O)[C@H](CC(C)C)NC(=O)[C@H](Cc4cnc[nH]4)NC(=O)[C@H](C(C)C)NC(=O)[C@@H]4CCCN4C(=O)[C@H](C(C)C)NC(=O)[C@@H](CCCNC(=N)N)NC(=O)[C@H](CC(=O)O)NC(=O)[C@H](Cc4cnc[nH]4)NC(=O)CN(C)C3=O)cc2)cc1 [Example 211] ({CH2CO}-[Ala(morpholin-4-yl)][Bip][Bip(4'-NHAc)][Sar]HD[dR]VPVHLCG-NH2; thioether N-13) | 200 to 2000 nM | – |
| CC(C)C[C@@H]1NC(=O)[C@H](CCCNC(=N)N)NC(=O)[C@H](C(C)C)NC(=O)[C@@H]2CCCN2C(=O)[C@H](C(C)C)NC(=O)[C@@H](CCCNC(=N)NCCc2ccc(NC(=N)N)cc2)NC(=O)[C@H](CC(=O)O)NC(=O)[C@@H]2CCCN2C(=O)CN(C)C(=O)[C@H](Cc2ccc(-c3ccc(NC(=O)c4nn(C)c5ccccc45)cc3)cc2)NC(=O)[C@H](Cc2ccc(-c3ccccc3)cc2)NC(=O)[C@H](CN2CCOCC2)NC(=O)CSC[C@@H](C(=O)NCC(N)=O)NC1=O [Example 439] ({CH2CO}-[Ala(morpholin-4-yl)][Bip][X5][Sar]PD[X72]VPVRLCG-NH2; thioether N-13) | 50 to 200 nM | – |
| CC[C@H](C)C1NC(=O)[C@@H]2CCCN2C(=O)[C@H]([C@@H](C)CC)NC(=O)[C@@H](CCCNC(=N)N)NC(=O)[C@H](CC(=O)O)NC(=O)[C@H](Cc2ccccn2)NC(=O)CN(C)C(=O)[C@H](Cc2ccc(-c3ccc(NC(C)=O)cc3)cc2)NC(=O)[C@H](Cc2ccc(-c3ccccc3)cc2)NC(=O)[C@H](CC2CCCCC2)NC(=O)CSC[C@@H](C(=O)NCC(N)=O)NC(=O)[C@H](CC(C)C)NC(=O)[C@H](CCCNC(=N)N)NC1=O (some centres unmarked) [Example 290] ({CH2CO}-[Cha][Bip][Bip(4'-NHAc)][Sar][2Pal]D[dR]IP[ξIle]RLCG-NH2; thioether N-13) | 50 to 200 nM | – |
| CC(C)C[C@@H]1NC(=O)[C@H](CCCNC(=N)N)NC(=O)[C@H](C(C)C)NC(=O)[C@@H]2CCCN2C(=O)[C@H](Cc2ccc(N)cc2)NC(=O)[C@H](CCCNC(=N)N)NC(=O)[C@H](CC(=O)O)NC(=O)[C@@H]2CCCN2C(=O)CN(C)C(=O)[C@H](Cc2ccc(-c3ccccc3)cc2)NC(=O)[C@H](Cc2ccc(-c3ccccc3)cc2)NC(=O)[C@H](C(C)(C)O)NC(=O)CSC[C@@H](C(=O)NCC(N)=O)NC1=O [Example 61] ({CH2CO}-[Val(3-OH)][Bip][Bip][Sar]PDR[Phe(4-NH2)]PVRLCG-NH2; thioether N-13) | 200 to 2000 nM | – |
| CC(C)C[C@@H]1NC(=O)[C@H](CCCNC(=N)N)NC(=O)[C@H](C(C)C)NC(=O)[C@@H]2CCCN2C(=O)[C@H](Cc2ccc(F)cc2)NC(=O)[C@H](CCCNC(=N)N)NC(=O)[C@H](CC(=O)O)NC(=O)[C@@H]2CCCN2C(=O)CN(C)C(=O)[C@H](Cc2ccc(-c3ccccc3)cc2)NC(=O)[C@H](Cc2ccc(-c3ccccc3)cc2)NC(=O)[C@H](Cc2ccccc2)NC(=O)CSC[C@@H](C(=O)NCC(N)=O)NC1=O [Example 23] ({CH2CO}-F[Bip][Bip][Sar]PDR[Phe(4-F)]PVRLCG-NH2; thioether N-13) | 200 to 2000 nM | – |

More lines, main results first:

| IC50 [1] | Structure (SMILES) | IC50 |
| --- | --- | --- |
| < 50 nM | CC[C@H](C)[C@@H]1NC(=O)[C@@H](CCCNC(=N)N)NC(=O)[C@H](CC(=O)O)NC(=O)[C@H](Cc2cnc[nH]2)NC(=O)CN(C)C(=O)[C@H](Cc2ccc(-c3ccc(NC(=O)c4cccc(OCC(=O)O)c4)cc3)cc2)NC(=O)[C@H](Cc2ccc(-c3ccc(C(=O)O)cc3)cc2)NC(=O)[C@H](C(C)(C)C)NC(=O)CSC[C@@H](C(=O)NCC(N)=O)NC(=O)[C@H](CC(C)C)NC(=O)[C@H](Cc2cccc(C(N)=O)c2)NC(=O)[C@H](C(C)C)NC(=O)[C@@H]2CCCN2C1=O [Example 591] ({CH2CO}-[Tle][Bip(4'-COOH)][Bip(4'-NH)](Benzoyl(3-OCH2COOH))[Sar]HD[dR]IPV[Phe(3-CONH2)]LCG-NH2; thioether N-13) | – |
| 50 to 200 nM | CC(=O)Nc1ccc(-c2ccc(C[C@@H]3NC(=O)[C@H](Cc4ccc(-c5ccc(C(=O)O)cc5)cc4)NC(=O)[C@H](CC4CCCCC4)NC(=O)CSC[C@@H](C(=O)NCC(N)=O)NC(=O)[C@H](CC(C)C)NC(=O)[C@H](Cc4cnc[nH]4)NC(=O)[C@H](C(C)C)NC(=O)[C@@H]4CCCN4C(=O)[C@H](C4CCCCC4)NC(=O)[C@@H](CCCNC(=N)N)NC(=O)[C@H](CC(=O)O)NC(=O)[C@H](Cc4cnc[nH]4)NC(=O)CN(C)C3=O)cc2)cc1 [Example 280] ({CH2CO}-[Cha][Bip(4'-COOH)][Bip(4'-NHAc)][Sar]HD[dR][Chg]PVHLCG-NH2; thioether N-13) | – |
| < 50 nM | CC(=O)Nc1ccc(-c2ccc(C[C@@H]3NC(=O)[C@H](Cc4ccc(-c5ccccc5)cc4)NC(=O)[C@H](CN4CCOCC4)NC(=O)CSC[C@@H](C(=O)NCC(N)=O)NC(=O)[C@H](CC(C)C)NC(=O)[C@H](CCCNC(=N)N)NC(=O)[C@H](C(C)C)NC(=O)[C@@H]4CCCN4C(=O)[C@H](C(C)C)NC(=O)[C@@H](CCCNC(=N)N)NC(=O)[C@H](CC(=O)O)NC(=O)[C@@H]4CCCN4C(=O)CN(C)C3=O)cc2)cc1 [Example 128] ({CH2CO}-[Ala(morpholin-4-yl)][Bip][Bip(4'-NHAc)][Sar]PD[dR]VPVRLCG-NH2; thioether N-13) | – |
| 50 to 200 nM | CC[C@H](C)[C@@H]1NC(=O)[C@@H]2CCCN2C(=O)[C@H]([C@@H](C)CC)NC(=O)[C@@H](CCCNC(=N)N)NC(=O)[C@H](CC(=O)O)NC(=O)[C@H](Cc2ccco2)NC(=O)CN(C)C(=O)[C@H](Cc2ccc(-c3ccc(NC(C)=O)cc3)cc2)NC(=O)[C@H](Cc2ccc(-c3ccccc3)cc2)NC(=O)[C@H](C(C)(C)C)NC(=O)CSC[C@@H](C(=O)NCC(N)=O)NC(=O)[C@H](CC(C)C)NC(=O)[C@H](Cc2ccc(O)cc2)NC1=O [Example 298] ({CH2CO}-[Tle][Bip][Bip(4'-NHAc)][Sar][Ala(2-furyl)]D[dR]IPIYLCG-NH2; thioether N-13) | – |
| 50 to 200 nM | CC(C)C[C@@H]1NC(=O)[C@H](CCCNC(=N)N)NC(=O)[C@H](C(C)C)NC(=O)[C@@H]2CCCN2C(=O)[C@H](C(C)C)NC(=O)[C@@H](CCCNC(=N)N)NC(=O)[C@H](CC(=O)O)NC(=O)[C@H](Cc2ccc(O)cc2)NC(=O)CNC(=O)[C@H](Cc2ccc(-c3ccccc3)cc2)NC(=O)[C@H](Cc2ccc(-c3ccccc3)cc2)NC(=O)[C@H](CN2CCOCC2)NC(=O)CSC[C@@H](C(=O)NCC(N)=O)NC1=O [Example 132] ({CH2CO}-[Ala(morpholin-4-yl)][Bip][Bip]GYD[dR]VPVRLCG-NH2; thioether N-13) | – |
